Experiment [1] relates to guinea-pig trachea. Description: Bronchodilating effect in vitro, Method 1-2: relaxation of guinea-pig trachea strips (no LTD4 contraction). The format is cell-based. The conditions noted are these: Cavia porcellus; Method 1-2; trachea conditioned with 1 μM isoproterenol, no LTD4; DMSO 0.2 v/v%; read-out: EC50 (concentration to achieve 50% relaxation relative to relaxation by 1 mM aminophylline). The procedure: (§1) A test sample drug was dissolved in 100% dimethylsulfoxide (DMSO, Wako Junyaku) and diluted for use. Leukotriene D4 (LTD4, Ultrafine) and isoproterenol (Isoproterenol, Sigma) were diluted with distilled water. Indomethacin (Indo, Sigma) was dissolved in 100% ethanol (EtOH, Komune Kagaku). Aminophylline (AP, Sigma), histamine dihydrochloride (His, Wako Junyaku) was dissolved in distilled water. The final concentrations of DMSO and EtOH in a bath were made not higher than 0.25% v/v and not higher than 0.1% v/v, respectively. Method 1:1:
(§2) A guinea-pig of 300-450 g was exsanguinated, and the trachea was taken out. After removing fat and connective tissues, it was cut and divided into 2 to 3 spiral strips, each having a width of about 2 mm and containing 4 smooth muscle tissues. Each specimen thus prepared was suspended in an organ bath of 8 ml containing a modified Tyrode solution aerated with 95% O2 +5% CO2 at 37° C., and a load of 1 g was applied thereto. The relaxation of the muscle was recorded by a pen recorder (Yokogawa Hokushin Electric, type 3066) by means of an isotonic transducer (Nihon Kohden, TD-112S).
The same measuring method as method 1-1 was employed. The specimen was allowed to stand for from 60 to 90 minutes and then relaxed by an addition of 1 μM of isopreterenol. The specimen was washed, and this operation was repeated at an interval of from 30 to 40 minutes until a constant relaxation reaction was reached. Then, a test sample drug was accumulately applied to relax the specimen. Finally, 1 mM of AP was added to achieve the maximum relaxation reaction. The result was expressed by relaxation percent relative to the relaxation by AP which was rated 100%, and a concentration to achieve 50% relaxation (EC50, μM) was obtained. The final concentration of DMSO in the bath was adjusted to be 0.2 v/v%. As a control drug, AP was used.

Experiment [2] concerns guinea-pig trachea. The experiment is described as follows: Bronchodilating effect in vitro, Method 1-1: relaxation of LTD4-contracted guinea-pig trachea strips. Conditions: Method 1-1, LTD4 (30 nM) contracted trachea, indomethacin 5 μM, read-out: EC50 (concentration to achieve 50% relaxation relative to relaxation by 1 mM aminophylline). The format is cell-based. Here is the method: as §1, §2
The composition of the modified Tyrode solution was as follows (mM):
The specimen was allowed to stand for 50-60 minutes, and was contracted with histamine dihydrochloride (100 μM). After the reaction became constant, it was washed and allowed to stand for 20-30 minutes. Indomethacin (5 μM) was added thereto, and after incubation for 30 minutes, the specimen was contracted by adding LTD4 (30 nM). After the reaction-became stable, a test sample drug was accumulatively administered. Finally, AP (1 mM) was added to achieve the maximum relaxation reaction. The result was expressed by relaxation percent relative to the relaxation by AP which was rated 100%, and a concentration to achieve 50% relaxation (EC50, μM) was measured. As a control drug, AP was used.

The test system of another experiment is platelet. The experiment is described as follows: Anti-platelet aggregation effect in rabbits (ADP-induced). The format is cell-based, rabbit. The conditions noted are these: rabbit PRP, ADP 5 to 10 μM, 37° C., read-out: IC50 (concentration at which aggregation of control sample was 50% inhibited). Here is the method: Anti-platelet aggregation effect in rabbits
Blood was collected from the abdominal artery of Japanese white male rabbits (weight: 1.8 to 2.5 kg) into a syringe containing 1/10 volume 3.8% sodium citrate. The blood thus obtained was subjected to a centrifugation at 200×g for 7 minutes at room temperature to obtain platelet rich plasma (PRP). Furthermore, the residue was subjected to a centrifugation at 2000×g for 10 minutes to obtain platelet poor plasma (PPP). The measurement was effected by diluting PRP with PPP to 300,000/mm^3. PRP and PPP were placed in a cuvette, and the measurement range of transmittance was adjusted to 0% in the case of PRP and to 100% in the case of PPP. Thereafter, a test sample drug dissolved in 100% dimethylsulfoxide (DMSO) was added to PRP (the final concentration of DMSO: 0.25%). After incubation was effected at 37° C. at 900 rpm for 2 minutes, an aggregating agent was added to record an aggregation curve. The anti-platelet aggregation effect of the test sample drug was expressed by a concentration (IC50 : μM) at which the aggregation of control sample was 50% inhibited. The aggregating agent ADP was used at the minimum concentration (5 to 10 μM) which caused the maximum aggregation. The measurement of platelet aggregation was carried out by using NBS HEMA TRACER 601.

Experiment [3] concerns anaphylactic bronchoconstriction mediated by endogeneously liberated SRS-A. The experiment is described as follows: Effect on anaphylactic bronchoconstriction mediated by endogeneously liberated SRS-A in passively sensitized guinea-pig. In kind it is in vivo. Conditions: 30 mg/kg, orally 2 hours before EA challenge; for inhibition in vivo at 30 mg/kg: Cavia porcellus, po, 2 h, read-out: Inhibition of broncho-constriction. Here is the method: Effect on anaphylactic bronchoconstriction mediated by endogeneously liberated SRS-A in passively sensitized guinea-pig
Male guinea-pigs (350-450 g) were passively sensitized with intravenous (i.v.) injection of 0.125 ml rabbit anti-EA (egg albumin) serum (Capple Laboratories) 1 to 2 days preceding the experiment. Antigen-induced anaphylactic bronchoconstrictions mediated by endogeneously liberated SRS-A were measured by modified method of Konzett and Rossler (Arch. Exp. Path. Pharmak., 195, 71, 1940). Sensitized quinea-pigs were anaesthetized with intraperitoneal injection of urethane (1.5 g/kg). The right jugular vein was cannulated for the administration of the all agents and trachea was cannulated to record total pulmonary resistance. Guinea-pigs were artificially ventilated by a small animal respirator (Shinano, Model SN-480-7) set at a stroke volume of 4.5 ml and a rate of 50 breaths per min. The change in pulmonary resistance was measured with a pressure transducer (Nihon Kohden, Model TP-602T) connected to a T-tube on the tracheal cannula. The percentage of the maximum bronchoconstriction obtained by clamping off the trachea. Following surgical preparation, the animals were pretreated with indomethacin (2 mg/kg, 10 min), pyrilamine (2 mg/kg, 6 min) and propranolol (0.1 mg/kg, 5 min) prior to the EA challenge (0.2 mg/kg). All test compounds were administered orally 2 hours before the EA challenge. Inhibition (%) of broncho-constriction was determined as follows: Inhibition (%)=(1.0-% maximum bronchoconstriction in test/% maximum bronchoconstriction in control)×100. The maximum bronchoconstriction was 62±6% (Mean±S.E.M; n=6) and the number of test animals was 5-6.

Setting [4] is: Oryctolagus cuniculus, Platelet.

Read-outs that look alike come from different tables or passages of the source.

Here are results for 32 compounds from patent US5929074A, “Pyridazinone derivatives with pharmaceutical activity” (Nissan Chemical Industries, Ltd., priority 1993, dated 1999).

Turning to `Cn1c(=O)c2[nH]cnc2n(C)c1=O` [Aminophylline, reference compound], the EC50 was 37000 nM in the experiment on guinea-pig trachea [1] and 178000 nM with guinea-pig trachea [2] (Cavia porcellus).
Regarding `COc1ccc(CNc2cn[nH]c(=O)c2Cl)cc1OCCN1CCN(Cc2ccccc2)CC1` [Compound 4], in the experiment on platelet (setting [4]), the IC50 stood at 5200 nM. The EC50 in the experiment with guinea-pig trachea [2] (Cavia porcellus) is 1700 nM.
Turning to `COc1ccc(CNc2cn[nH]c(=O)c2Br)cc1OCCN1CCN(Cc2ccccc2)CC1` [Compound 5], the IC50 with platelet (setting [4]) was 4100 nM. In the experiment with guinea-pig trachea [2] (Cavia porcellus), the EC50 was 420 nM.
As to `COc1ccc(CNc2cn[nH]c(=O)c2Br)cc1OCCN1CCN(Cc2ccccc2)CC1` [Compound 6], the IC50 in the experiment on platelet amounted to 3900 nM.
For the compound `COc1ccc(CNc2cn[nH]c(=O)c2Br)cc1OCCN1CCN(Cc2ccc(F)cc2)CC1` [Compound 13], in the experiment on platelet (setting [4]), the IC50 came to 2900 nM. The EC50 with guinea-pig trachea [2] (Cavia porcellus) was determined as 450 nM.
Regarding `COc1ccc(CNc2cn[nH]c(=O)c2Br)cc1OCCN1CCN(Cc2ccc(F)cc2)CC1` [Compound 14], the IC50 in the experiment on platelet stood at 3500 nM.
`COc1ccc(CNc2cn[nH]c(=O)c2Cl)cc1OCCN1CCN(Cc2ccc(F)cc2)CC1` [Compound 15]: the IC50 with platelet (setting [4]) was 4500 nM. Further, in the experiment with guinea-pig trachea [2] (Cavia porcellus), the EC50 was 480 nM.
Turning to `COc1ccc(CNc2cn[nH]c(=O)c2Cl)cc1OCCN1CCN(Cc2ccc(F)cc2)CC1` [Compound 16], the IC50 in the experiment on platelet came out at 5200 nM. In the experiment with guinea-pig trachea [1], the EC50 stood at 340 nM.
`CCn1ncc(NCc2ccc(OC)c(OCCCN3CCN(Cc4ccc(F)cc4)CC3)c2)c(Cl)c1=O` [Compound 27]: the EC50 in the experiment with guinea-pig trachea [2] (Cavia porcellus) amounted to 4000 nM.
Regarding `COc1ccc(CNc2cn[nH]c(=O)c2Cl)cc1OCC(=O)NCc1cccnc1` [Compound 31], in the experiment on guinea-pig trachea [2] (Cavia porcellus), the EC50 was determined as 6900 nM.
On to `COc1ccc(CNc2cn[nH]c(=O)c2Br)cc1OCC(=O)N1CCN(Cc2cccnc2)CC1` [Compound 34], for which the EC50 in the experiment on guinea-pig trachea [2] (Cavia porcellus) turned out to be 3800 nM.
Take `COc1ccc(CNc2cn[nH]c(=O)c2Cl)cc1OCC(=O)N1CCN(Cc2cccnc2)CC1` [Compound 35]: the EC50 in the experiment on guinea-pig trachea [2] (Cavia porcellus) was 6600 nM.
For `COc1ccc(CNc2cn[nH]c(=O)c2Cl)cc1OCC(=O)N1CCN(Cc2ccccc2)CC1` [Compound 37], in experiment [3], the Inhibition of broncho-constriction is listed as 54%.
For `COc1ccc(CNc2cn[nH]c(=O)c2Br)cc1OCC(=O)N1CCN(Cc2ccccc2)CC1` [Compound 38], the IC50 with platelet (setting [4]) turned out to be 1200 nM.
On to `COc1ccc(CNc2cn[nH]c(=O)c2Br)cc1OCCCC(=O)N1CCN(Cc2ccccc2)CC1` [Compound 48], for which, in the experiment with platelet (setting [4]), the IC50 was 4000 nM. Also, the results for the EC50 in the experiment with guinea-pig trachea [1] and in the experiment on guinea-pig trachea [2] (Cavia porcellus) were 210 nM and 950 nM, respectively.
As for `COc1ccc(CNc2cn[nH]c(=O)c2Cl)cc1OCCCCCC(=O)N1CCN(Cc2ccccc2)CC1` [Compound 49], the EC50 in the experiment on guinea-pig trachea [2] (Cavia porcellus) is 1100 nM.
`COc1ccc(CNc2cn[nH]c(=O)c2Cl)cc1OCC(=O)N1CCN(Cc2ccc(Cl)cc2)CC1` [Compound 51]: in the experiment on platelet (setting [4]), the IC50 worked out at 1100 nM. Further, the EC50 is 97 nM in the experiment with guinea-pig trachea [1] and 6100 nM in the experiment on guinea-pig trachea [2] (Cavia porcellus).
`COc1ccc(CNc2cn[nH]c(=O)c2Cl)cc1OCC(O)CN1CCN(Cc2ccc(F)cc2)CC1` (centres unmarked) [Compound 53]: the EC50 with guinea-pig trachea [2] (Cavia porcellus) came to 3100 nM.
Regarding `COc1ccc(CNc2cn[nH]c(=O)c2Cl)cc1OCCCN1CCN(Cc2ccccc2)CC1` [Compound 54], the EC50 with guinea-pig trachea [1] amounted to 300 nM; in the experiment on guinea-pig trachea [2], 2400 nM.
For the compound `COc1ccc(CNc2cn[nH]c(=O)c2Cl)cc1OC(C)CN1CCN(Cc2ccc(F)cc2)CC1` (centres unmarked) [Compound 55], the EC50 with guinea-pig trachea [2] (Cavia porcellus) was found to be 7300 nM.
With `COc1ccc(CNc2cn[nH]c(=O)c2Cl)cc1OCC(=O)N1CCN(Cc2ccc3ccccc3n2)CC1` [Compound 61], the EC50 in the experiment with guinea-pig trachea [1] is 310 nM.
With `COc1ccc(CNc2cn[nH]c(=O)c2Cl)cc1OCC(=O)N1CCC(Cc2ccccc2)CC1` [Compound 62], the EC50 in the experiment on guinea-pig trachea [1] was determined as 50 nM.
For the compound `CCOc1n[nH]c(=O)c(Cl)c1NCc1ccc(OC)c(OCCN2CCN(Cc3ccc(F)cc3)CC2)c1` [Compound 65], in the experiment on guinea-pig trachea [1], the EC50 was 360 nM.
As to `CCOc1n[nH]c(=O)c(Cl)c1NCc1ccc(OC)c(OCC(=O)N2CCN(Cc3ccccc3)CC2)c1` [Compound 66], the EC50 turned out to be 67 nM in the experiment with guinea-pig trachea [1] and 180 nM in the experiment with guinea-pig trachea [2] (Cavia porcellus).
Take `CCOc1n[nH]c(=O)c(Cl)c1NCc1ccc(OC)c(OCC(C)(C)C(=O)N2CCN(Cc3ccc(F)cc3)CC2)c1` [Compound 69]: in the experiment with guinea-pig trachea [1], the EC50 came to 430 nM.
As to `CCOc1n[nH]c(=O)c(Cl)c1NCc1ccc(OC)c(OCCCN2CCN(Cc3ccc4ccccc4n3)CC2)c1` [Compound 71], in the experiment with guinea-pig trachea [1], the EC50 is 250 nM.
As for `CCOc1n[nH]c(=O)c(Cl)c1NCc1ccc(OC)c(OCC(=O)N2CCN(Cc3nc4ccccc4n3Cc3ccc(F)cc3)CC2)c1` [Compound 73], the EC50 in the experiment with guinea-pig trachea [1] came out at 490 nM.
Consider `CCOc1n[nH]c(=O)c(Cl)c1NCc1ccc(OC)c(OCC(=O)N2CCC(Cc3ccccc3)CC2)c1` [Compound 74], for which the EC50 in the experiment on guinea-pig trachea [1] was 46 nM. The inhibition in vivo at 30 mg/kg in experiment [3] worked out at 30%.
`CCOc1n[nH]c(=O)c(Cl)c1NCc1ccc(OC)c(OCCN2CCC(Cc3ccccc3)CC2)c1` [Compound 75]: the EC50 in the experiment with guinea-pig trachea [1] stood at 400 nM.
Consider `COc1ccc(CNc2c(OC(C)C)n[nH]c(=O)c2Cl)cc1OCC(=O)N1CCN(Cc2ccc(F)cc2)CC1` [Compound 76], for which the EC50 was 48 nM in the experiment with guinea-pig trachea [1] and 690 nM in the experiment with guinea-pig trachea [2] (Cavia porcellus).
In the case of `COc1ccc(CNc2c(OC(C)C)n[nH]c(=O)c2Cl)cc1OCC(O)CN1CCN(Cc2ccc(NC=O)cc2)CC1` (centres unmarked) [Compound 77], in the experiment with guinea-pig trachea [1], the EC50 was found to be 57 nM. The inhibition in vivo at 30 mg/kg in experiment [3] came out at 65%.
With `COc1ccc(CNc2c(OC(C)C)n[nH]c(=O)c2Cl)cc1OCC(=O)N1CCN(Cc2ccc(NC=O)cc2)CC1` [Compound 79], the EC50 with guinea-pig trachea [1] stood at 41 nM.
